Results on 29 molecules are retold here after US8895585B2, “Nicotinamide derivative or salt thereof” (FUJIFILM Corporation, priority 2010, dated 2014).

Bounds are passed on as bounds.

In test [1] the target is T1, glutathione S-transferase (GST)-fused full-length human Syk protein (Homo sapiens, UniProt P43405).
T1 construct: (GST)-fused full-length human Syk protein; GST (glutathione S-transferase); purchased Carna Biosciences
The experiment in a line: Syk enzyme assay. It is filed as biochemical. Particulars: Syk enzyme assay, Test Example 1; read-out: IC50 of Syk-inhibitory activity. The method in brief: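 GST-tagged full-length human Syk (baculovirus) preincubated with compound 15 min at room temperature (pH 7.0, 10 mM MgCl2), then reacted 40 min with 0.4 μM biotinylated peptide substrate and 27 μM ATP (final). Phosphorylation read by HTRF (615/665 nm) after EDTA stop; IC50 reported.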

The next test has as its system THP-1 cells. Kind of test: TNFα generation assay. It is filed as cell-based, human. The following applies: Homo sapiens, THP-1, THP-1 cells; Table 22; read-out: IC50 in TNFα generation assay. The essentials:
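THP-1 cells differentiated to macrophage-like cells with 10 ng/ml IFN-γ for 2 days, preincubated with compound 30 min at room temperature, then cultured 7 h on plates coated with human IgG (10 μg/ml). Secreted TNFα measured by ELISA or AlphaLISA.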

Turning to `CCC[C@@H](Nc1nc(Nc2ccc3nc(OCCOC)ccc3c2)c(C(N)=O)cc1F)[C@H](C)N` [Example 006-303, 6-(((2S,3R)-2-aminohexan-3-yl)amino)-5-fluoro-2-((2-(2-methoxyethoxy)quinolin-6-yl)amino)nicotinamide], the IC50 in test [1] was less than 10 nM; in the test on THP-1 cells it was 130 to 200 nM.
Taken in the same sequence, the figures for `CCC[C@@H](Nc1nc(Nc2ccnc(-n3cncn3)c2)c(C(N)=O)cc1F)[C@H](C)N` [Example 006-300, 2-((2-(1H-1,2,4-triazol-1-yl)pyridin-4-yl)amino)-6-(((2S,3R)-2-aminohexan-3-yl)amino)-5-fluoronicotinamide] were less than 10 nM and less than 65 nM.
For `NC(=O)c1cc(F)c(N[C@@H]2CCCC[C@@H]2N)nc1Nc1cncc(-c2cccc(N)c2)c1` (relative stereo) [Example 004-217, 6-(cis-2-aminocyclohexylamino)-2-((5-(3-aminophenyl)pyridin-3-yl)amino)-5-fluoronicotinamide], in that order: less than 10 nM and 65 to 130 nM.
Taken in the same sequence, the figures for `NC(=O)c1cc(F)c(N[C@@H]2CCCC[C@@H]2N)nc1Nc1cncc(-c2ccccn2)c1` [Example 004-106] were less than 10 nM and 130 to 200 nM.
Regarding `CCC[C@@H](Nc1nc(Nc2cnc3cc(OC)ccc3c2)c(C(N)=O)cc1F)[C@H](C)N` [Example 006-204, 6-(((2S,3R)-2-aminohexan-3-yl)amino)-5-fluoro-2-((7-methoxyquinolin-3-yl)amino)nicotinamide], the figures for the IC50 (in test [1]; with THP-1 cells) were less than 10 nM and 65 to 130 nM, respectively.
Taken in the same sequence, the figures for `NC(=O)c1cc(F)c(N[C@@H]2CCCC[C@@H]2N)nc1Nc1ccnc2c1ccn2C1CC1` [Example 004-037] were less than 10 nM and 65 to 130 nM.
Taken in the same sequence, the figures for `COc1ccc2cc(Nc3nc(N[C@H](CC4CC4)[C@H](C)N)c(F)cc3C(N)=O)cnc2c1` [Example 006-346, 6-(((2R,3S)-3-amino-1-cyclopropylbutan-2-yl)amino)-5-fluoro-2-((7-methoxyquinolin-3-yl)amino)nicotinamide] were less than 10 nM and 130 to 200 nM.
Taken in the same sequence, the figures for `NC(=O)c1cc(Cl)c(NC2CCCCC2N)nc1Nc1cnc2ccccc2c1` (stereo not shown) [Example 035-001] were less than 10 nM and 65 to 130 nM.
For the molecule `NC(=O)c1cc(F)c(N[C@@H]2CCCC[C@@H]2N)nc1Nc1cncc(Cl)c1` (relative stereo) [Example 004-097, 6-(cis-2-aminocyclohexylamino)-2-((5-chloropyridin-3-yl)amino)-5-fluoronicotinamide], the IC50 in test [1] is less than 10 nM; in the test on THP-1 cells it was 65 to 130 nM.
Taken in the same sequence, the figures for `CCC[C@@H](Nc1nc(Nc2cnc(OC)c(-n3nccn3)c2)c(C(N)=O)cc1F)[C@H](C)N` [Example 006-253, 6-(((2S,3R)-2-aminohexan-3-yl)amino)-5-fluoro-2-((6-methoxy-5-(2H-1,2,3-triazol-2-yl)pyridin-3-yl)amino)nicotinamide] were 10 to 50 nM and 130 to 200 nM.
On to `CC[C@@H](Nc1nc(Nc2cccc3cccnc23)c(C(N)=O)cc1F)[C@H](C)N` [Example 006-258, 6-(((2S,3R)-2-aminopentan-3-yl)amino)-5-fluoro-2-((quinolin-8-yl)amino)nicotinamide], for which the IC50 was in the range of 50 to 100 nM in test [1] and 130 to 200 nM in the test on THP-1 cells.
In the case of `NC(=O)c1cc(F)c(N[C@@H]2CCCC[C@@H]2N)nc1Nc1ccc(N2CCOC2=O)nc1` [Example 006-537, 6-(((1R,2S)-2-aminocyclohexyl)amino)-5-fluoro-2-((6-(2-oxooxazolidin-3-yl)pyridin-3-yl)amino)nicotinamide], the results for the IC50 (in test [1]; in the test on THP-1 cells) were 10 to 50 nM and 65 to 130 nM, respectively.
Turning to `CC(C)C[C@@H](Nc1nc(Nc2ccc3c(c2)c(F)nn3CC(F)F)c(C(N)=O)cc1F)[C@H](C)N` [Example 006-513, 6-(((2S,3R)-2-amino-5-methylhexan-3-yl)amino)-2-((1-(2,2-difluoroethyl)-3-fluoro-1H-indazol-5-yl)amino)-5-fluoronicotinamide], the IC50 in test [1] is less than 10 nM; in the test with THP-1 cells, 65 to 130 nM.
Taken in the same sequence, the figures for `CCC[C@@H](Nc1nc(Nc2cnc(C)c(-n3nccn3)c2)c(C(N)=O)cc1F)[C@H](C)N` [Example 006-252, 6-(((2S,3R)-2-aminohexan-3-yl)amino)-5-fluoro-2-((6-methyl-5-(2H-1,2,3-triazol-2-yl)pyridin-3-yl)amino)nicotinamide] were less than 10 nM and 65 to 130 nM.
Taken in the same sequence, the figures for `CCC[C@@H](Nc1nc(Nc2ccc3c(cnn3CC)c2)c(C(N)=O)cc1F)[C@H](C)N` [Example 006-237, 6-(((2S,3R)-2-aminohexan-3-yl)amino)-2-((1-ethyl-1H-indazol-5-yl)amino)-5-fluoronicotinamide] were less than 10 nM and less than 65 nM.
For `CCCC[C@@H](Nc1nc(Nc2ccc3c(cnn3C)c2)c(C(N)=O)cc1F)[C@H](C)N` [Example 006-387, 6-(((2S,3R)-2-aminoheptane-3-yl)amino)-5-fluoro-2-((1-methyl-1H-indazol-5-yl)amino)nicotinamide], in that order: less than 10 nM and 65 to 130 nM.
For `C[C@H](N)[C@@H](CC1CC1)Nc1nc(Nc2ccc3c(c2)c(F)nn3CC(F)F)c(C(N)=O)cc1F` [Example 006-510, 6-(((2R,3S)-3-amino-1-cyclopropylbutan-2-yl)amino)-2-((1-(2,2-difluoroethyl)-3-fluoro-1H-indazol-5-yl)amino)-5-fluoronicotinamide], the IC50 is less than 10 nM in test [1] and 65 to 130 nM with THP-1 cells.
For `CC[C@@H](Nc1nc(Nc2cccc3c2cnn3CC)c(C(N)=O)cc1F)[C@H](C)N` [Example 006-523, 6-(((2S,3R)-2-aminopentan-3-yl)amino)-2-((1-ethyl-1H-indazol-4-yl)amino)-5-fluoronicotinamide], in that order: less than 10 nM and less than 65 nM.
Taken in the same sequence, the figures for `COc1ccc(-c2cncc(Nc3nc(N[C@@H]4CCCC[C@@H]4N)c(F)cc3C(N)=O)c2)c(OC)c1` (relative stereo) [Example 004-190, 6-(cis-2-aminocyclohexylamino)-2-((5-(2,4-dimethoxyphenyl)pyridin-3-yl)amino)-5-fluoronicotinamide] were less than 10 nM and 130 to 200 nM.
Regarding `COc1nn(C)c2ccc(Nc3nc(N[C@@H]4CCCC[C@@H]4N)c(F)cc3C(N)=O)cc12` [Example 006-585, 6-(((1R,2S)-2-aminocyclohexyl)amino)-5-fluoro-2-((3-methoxy-1-methyl-1H-indazol-5-yl)amino)nicotinamide], the IC50 in test [1] was less than 10 nM; in the test on THP-1 cells it was less than 65 nM.
On to `CCOc1nn(CC)c2ccc(Nc3nc(N[C@H](CC(C)C)[C@H](C)N)c(F)cc3C(N)=O)cc12` [Example 006-592, 6-(((2S,3R)-2-amino-5-methylhexan-3-yl)amino)-2-((3-ethoxy-1-ethyl-1H-indazol-5-yl)amino)-5-fluoronicotinamide], for which the values for the IC50 (in test [1]; in the test with THP-1 cells) were less than 10 nM and 130 to 200 nM, respectively.
For `CCn1ncc2c(Nc3nc(N[C@H](C4CC4)[C@H](C)N)c(F)cc3C(N)=O)cccc21` [Example 006-576, 6-(((1R,2S)-2-amino-1-cyclopropylpropyl)amino)-2-((1-ethyl-1H-indazol-4-yl)amino)-5-fluoronicotinamide], in that order: less than 10 nM and less than 65 nM.
For the molecule `CCCC[C@H](CN)Nc1nc(Nc2ccc3ncccc3c2)c(C(N)=O)cc1F` [Example 006-274, (R)-6-((1-aminohexan-2-yl)amino)-5-fluoro-2-(quinolin-6-ylamino)nicotinamide], the values for the IC50 (in test [1]; with THP-1 cells) were less than 10 nM and 65 to 130 nM, respectively.
For `CC[C@H](N)[C@@H](C)Nc1nc(Nc2ccc3c(cnn3CC)c2)c(C(N)=O)cc1F` [Example 006-362, 6-(((2R,3S)-3-aminopentan-2-yl)amino)-2-((1-ethyl-1H-indazol-5-yl)amino)-5-fluoronicotinamide], the IC50 in test [1] was less than 10 nM; in the test with THP-1 cells, 130 to 200 nM.
Taken in the same sequence, the figures for `CCOc1ncc(Nc2nc(N[C@@H]3CCCC[C@@H]3N)c(F)cc2C(N)=O)cc1N1CCOCC1` [Example 006-565, 6-(((1R,2S)-2-aminocyclohexyl)amino)-2-((6-ethoxy-5-morpholinopyridin-3-yl)amino)-5-fluoronicotinamide] were 100 to 1000 nM and 65 to 130 nM.
As for `CC[C@H](N)[C@@H](CC)Nc1nc(Nc2cc(OC)nc(OC)c2)c(C(N)=O)cc1F` [Example 006-379, 6-(((3R,4S)-4-aminohexan-3-yl)amino)-2-((2,6-dimethoxypyridin-4-yl)amino)-5-fluoronicotinamide], the IC50 in test [1] is less than 10 nM; with THP-1 cells it was 130 to 200 nM.
For `CCCC[C@H](CN)Nc1nc(Nc2ccc3c(cnn3CCOC)c2)c(C(N)=O)cc1F` [Example 006-338, (R)-6-((1-aminohexan-2-yl)amino)-5-fluoro-2-((1-(2-methoxyethyl)-1H-indazol-5-yl)amino)nicotinamide], in that order: 10 to 50 nM and 65 to 130 nM.
For `COc1cc(Nc2nc(N[C@H](c3ccc(F)cc3)[C@H](C)N)c(F)cc2C(N)=O)cc(OC)n1` [Example 006-557, 6-(((1R,2S)-2-amino-1-(4-fluorophenyl)propyl)amino)-2-((2,6-dimethoxypyridin-4-yl)amino)-5-fluoronicotinamide], in that order: less than 10 nM and 130 to 200 nM.
For `CCCC[C@H](CN)Nc1nc(Nc2cncc(-n3cccn3)c2)c(C(N)=O)cc1F` [Example 006-294, (R)-2-((5-(1H-pyrazol-1-yl)pyridin-3-yl)amino)-6-((1-aminohexan-2-yl)amino)-5-fluoronicotinamide], in that order: 10 to 50 nM and 65 to 130 nM.
